In ChEMBL document CHEMBL1275533, “In vitro antibacterial activity of vertilmicin and its susceptibility to modifications by the recombinant AAC6'-APH2'' enzyme” (2008):
In brackets after ≈: the same amount, converted by molar mass. Activity calls are given as the source filed them. The rule behind the calls is not given here.

What was measured:
Morganella morganii [1] = test: Antibacterial activity against gentamicin-resistant Morganella morganii clinical isolate after 18 hrs by agar dilution method; format: functional
Pseudomonas aeruginosa [2] = test: Antibacterial activity against gentamicin-resistant Pseudomonas aeruginosa clinical isolate assessed as susceptible isolates after 18 hrs by agar dilution method; format: functional
Enterococcus faecalis = test: Antibacterial activity against gentamicin-resistant Enterococcus faecalis clinical isolate assessed as susceptible isolates after 18 hrs by agar dilution method; format: functional, organism-based
[3] = system: Escherichia coli BL21(DE3); test: Acetylation activity of AAC(6')-APH(2'') in Escherichia coli BL21(DE3) assessed as production of free pyridine-4-thiolate
Klebsiella aerogenes [4] = test: Antibacterial activity against gentamicin-resistant Enterobacter aerogenes clinical isolate after 18 hrs by agar dilution method; format: functional
Morganella morganii [5] = test: Antibacterial activity against non-gentamicin-resistant Morganella morganii clinical isolate after 18 hrs by agar dilution method; format: functional
Pseudomonas aeruginosa [6] = test: Antibacterial activity against non-gentamicin-resistant Pseudomonas aeruginosa clinical isolate after 18 hrs by agar dilution method; format: functional
[7] = system: Haemophilus parainfluenzae; test: Antibacterial activity against non-gentamicin-resistant Haemophilus parainfluenzae clinical isolate assessed as susceptible isolates after 18 hrs by agar dilution method; format: functional, organism-based
Citrobacter freundii [8] = test: Antibacterial activity against non-gentamicin-resistant Citrobacter freundii clinical isolate after 18 hrs by agar dilution method; format: functional
Pseudomonas sp. [9] = test: Antibacterial activity against non-gentamicin-resistant Pseudomonas spp. clinical isolate after 18 hrs by agar dilution method; format: functional
Proteus mirabilis [10] = test: Antibacterial activity against non-gentamicin-resistant Proteus mirabilis clinical isolate assessed as susceptible isolates after 18 hrs by agar dilution method; format: functional
Serratia marcescens [11] = test: Antibacterial activity against gentamicin-resistant Serratia marcescens clinical isolate after 18 hrs by agar dilution method; format: functional
Enterobacter cloacae [12] = test: Antibacterial activity against non-gentamicin-resistant Enterobacter cloacae clinical isolate assessed as susceptible isolates after 18 hrs by agar dilution method; format: functional
Klebsiella aerogenes [13] = test: Antibacterial activity against non-gentamicin-resistant Enterobacter aerogenes clinical isolate assessed as susceptible isolates after 18 hrs by agar dilution method; format: functional
[14] = system: Acinetobacter calcoaceticus; test: Antibacterial activity against non-gentamicin-resistant Acinetobacter calcoaceticus clinical isolate after 18 hrs by agar dilution method; format: functional
Citrobacter koseri = test: Antibacterial activity against non-gentamicin-resistant Citrobacter diversus clinical isolate after 18 hrs by agar dilution method; format: functional
Morganella morganii [15] = test: Antibacterial activity against non-gentamicin-resistant Morganella morganii clinical isolate assessed as susceptible isolates after 18 hrs by agar dilution method; format: functional
Citrobacter freundii [16] = test: Antibacterial activity against non-gentamicin-resistant Citrobacter freundii clinical isolate assessed as susceptible isolates after 18 hrs by agar dilution method; format: functional
Enterobacter cloacae [17] = test: Antibacterial activity against gentamicin-resistant Enterobacter cloacae clinical isolate after 18 hrs by agar dilution method; format: functional
Citrobacter freundii [18] = test: Antibacterial activity against gentamicin-resistant Citrobacter freundii clinical isolate after 18 hrs by agar dilution method; format: functional
[19] = system: Haemophilus parainfluenzae; test: Antibacterial activity against non-gentamicin-resistant Haemophilus parainfluenzae clinical isolate after 18 hrs by agar dilution method; format: functional
Staphylococcus aureus [20] = test: Antibacterial activity against non-gentamicin-resistant Staphylococcus aureus clinical isolate after 18 hrs by agar dilution method; format: functional
Staphylococcus aureus [21] = test: Antibacterial activity against gentamicin-resistant Staphylococcus aureus clinical isolate after 18 hrs by agar dilution method; format: functional
Serratia marcescens [22] = test: Antibacterial activity against gentamicin-resistant Serratia marcescens clinical isolate assessed as susceptible isolates after 18 hrs by agar dilution method; format: functional
Proteus mirabilis [23] = test: Antibacterial activity against gentamicin-resistant Proteus mirabilis clinical isolate after 18 hrs by agar dilution method; format: functional
Proteus mirabilis [24] = test: Antibacterial activity against gentamicin-resistant Proteus mirabilis clinical isolate assessed as susceptible isolates after 18 hrs by agar dilution method; format: functional
[25] = system: Staphylococcus epidermidis; test: Antibacterial activity against gentamicin-resistant Staphylococcus epidermidis clinical isolate after 18 hrs by agar dilution method; format: functional
[26] = system: Staphylococcus epidermidis; test: Antibacterial activity against gentamicin-resistant Staphylococcus epidermidis clinical isolate assessed as susceptible isolates after 18 hrs by agar dilution method; format: functional
Klebsiella pneumoniae [27] = test: Antibacterial activity against gentamicin-resistant Klebsiella pneumoniae clinical isolate assessed as susceptible isolates after 18 hrs by agar dilution method; format: functional
Providencia rettgeri [28] = test: Antibacterial activity against non-gentamicin-resistant Proteus rettgeri clinical isolate assessed as susceptible isolates after 18 hrs by agar dilution method; format: functional
Staphylococcus aureus [29] = test: Antibacterial activity against gentamicin-resistant Staphylococcus aureus clinical isolate assessed as susceptible isolates after 18 hrs by agar dilution method; format: functional
Haemophilus influenzae = test: Antibacterial activity against non-gentamicin-resistant Haemophilus influenzae clinical isolate after 18 hrs by agar dilution method; format: functional
Enterobacter cloacae [30] = test: Antibacterial activity against non-gentamicin-resistant Enterobacter cloacae clinical isolate after 18 hrs by agar dilution method; format: functional
Serratia marcescens [31] = test: Antibacterial activity against non-gentamicin-resistant Serratia marcescens clinical isolate assessed as susceptible isolates after 18 hrs by agar dilution method; format: functional
Providencia rettgeri [32] = test: Antibacterial activity against non-gentamicin-resistant Proteus rettgeri clinical isolate after 18 hrs by agar dilution method; format: functional
Klebsiella pneumoniae [33] = test: Antibacterial activity against gentamicin-resistant Klebsiella pneumoniae clinical isolate after 18 hrs by agar dilution method; format: functional
[34] = system: Staphylococcus epidermidis; test: Antibacterial activity against non-gentamicin-resistant Staphylococcus epidermidis clinical isolate after 18 hrs by agar dilution method; format: functional
Escherichia coli = test: Antibacterial activity against gentamicin-resistant Escherichia coli clinical isolate assessed as susceptible isolates after 18 hrs by agar dilution method; format: functional
Klebsiella pneumoniae [35] = test: Antibacterial activity against non-gentamicin-resistant Klebsiella pneumoniae clinical isolate after 18 hrs by agar dilution method; format: functional
Pseudomonas sp. [36] = test: Antibacterial activity against gentamicin-resistant Pseudomonas spp. clinical isolate assessed as susceptible isolates after 18 hrs by agar dilution method; format: functional
Staphylococcus aureus [37] = test: Antibacterial activity against non-gentamicin-resistant Staphylococcus aureus clinical isolate assessed as susceptible isolates after 18 hrs by agar dilution method; format: functional
Pseudomonas aeruginosa [38] = test: Antibacterial activity against gentamicin-resistant Pseudomonas aeruginosa clinical isolate after 18 hrs by agar dilution method; format: functional
Enterobacter cloacae [39] = test: Antibacterial activity against gentamicin-resistant Enterobacter cloacae clinical isolate assessed as susceptible isolates after 18 hrs by agar dilution method; format: functional
Klebsiella pneumoniae [40] = test: Antibacterial activity against non-gentamicin-resistant Klebsiella pneumoniae clinical isolate assessed as susceptible isolates after 18 hrs by agar dilution method; format: functional
[41] = system: Escherichia coli BL21(DE3); test: Phosphorylation activity of AAC(6')-APH(2'') in Escherichia coli BL21(DE3) assessed as oxidation of NADH by pyruvate kinase
Morganella morganii [42] = test: Antibacterial activity against gentamicin-resistant Morganella morganii clinical isolate assessed as susceptible isolates after 18 hrs by agar dilution method; format: functional

CCN[C@@H]1C[C@H](N)[C@@H](O[C@H]2OC(CN)=CC[C@H]2N)[C@H](O)[C@H]1O[C@H]1OC[C@](C)(O)[C@H](NC)[C@H]1O [NETILMICIN]
MIC50 (Morganella morganii [1]): 8 µg/mL (≈ 16.8 µM) | MIC90 (Morganella morganii [1]): 16 µg/mL (≈ 33.6 µM) | Activity (Pseudomonas aeruginosa [2]): 2.9% | Activity (Enterococcus faecalis): inactive | Km [3]: 304 µM | MIC50 (Klebsiella aerogenes [4]): 32 µg/mL (≈ 67.3 µM) | MIC90 (Klebsiella aerogenes [4]): 128 µg/mL (≈ 269 µM) | MIC50 (Morganella morganii [5]): 1 µg/mL (≈ 2.1 µM) | MIC90 (Morganella morganii [5]): 2 µg/mL (≈ 4.21 µM) | MIC50 (Pseudomonas aeruginosa [6]): 8 µg/mL (≈ 16.8 µM) | MIC90 (Pseudomonas aeruginosa [6]): 32 µg/mL (≈ 67.3 µM) | Activity [7]: inactive | MIC50 (Citrobacter freundii [8]): 1 µg/mL (≈ 2.1 µM) | MIC90 (Citrobacter freundii [8]): 16 µg/mL (≈ 33.6 µM) | MIC50 (Pseudomonas sp. [9]): 8 µg/mL (≈ 16.8 µM) | MIC90 (Pseudomonas sp. [9]): 32 µg/mL (≈ 67.3 µM) | Activity (Proteus mirabilis [10]): 98.4% | MIC50 (Serratia marcescens [11]): > 128 µg/mL | MIC90 (Serratia marcescens [11]): > 128 µg/mL | Activity (Enterobacter cloacae [12]): 98.2% | Activity (Klebsiella aerogenes [13]): 98.1% | MIC50 [14]: 1 µg/mL (≈ 2.1 µM) | MIC90 [14]: 16 µg/mL (≈ 33.6 µM) | MIC50 (Citrobacter koseri): 0.5 µg/mL (≈ 1.05 µM) | MIC90 (Citrobacter koseri): 0.5 µg/mL (≈ 1.05 µM) | Activity (Morganella morganii [15]): 100% | Activity (Citrobacter freundii [16]): 83.3% | MIC50 (Enterobacter cloacae [17]): 128 µg/mL (≈ 269 µM) | MIC90 (Enterobacter cloacae [17]): > 128 µg/mL | MIC50 (Citrobacter freundii [18]): 8 µg/mL (≈ 16.8 µM) | MIC90 (Citrobacter freundii [18]): > 128 µg/mL | MIC50 [19]: 1 µg/mL (≈ 2.1 µM) | MIC90 [19]: 2 µg/mL (≈ 4.21 µM) | MIC50 (Staphylococcus aureus [20]): 0.25 µg/mL (≈ 0.526 µM) | MIC90 (Staphylococcus aureus [20]): 16 µg/mL (≈ 33.6 µM) | MIC50 (Staphylococcus aureus [21]): 16 µg/mL (≈ 33.6 µM) | MIC90 (Staphylococcus aureus [21]): 128 µg/mL (≈ 269 µM) | Activity (Serratia marcescens [22]): 10% | MIC50 (Proteus mirabilis [23]): 16 µg/mL (≈ 33.6 µM) | MIC90 (Proteus mirabilis [23]): > 128 µg/mL | Activity (Proteus mirabilis [24]): 36.4% | MIC50 [25]: 2 µg/mL (≈ 4.21 µM) | MIC90 [25]: 32 µg/mL (≈ 67.3 µM) | Activity [26]: 84.6% | Activity (Klebsiella pneumoniae [27]): 17.9% | Activity (Providencia rettgeri [28]): 92.3% | Activity (Staphylococcus aureus [29]): 47.2% | MIC50 (Haemophilus influenzae): 1 µg/mL (≈ 2.1 µM) | MIC90 (Haemophilus influenzae): 2 µg/mL (≈ 4.21 µM) | MIC50 (Enterobacter cloacae [30]): 0.5 µg/mL (≈ 1.05 µM) | MIC90 (Enterobacter cloacae [30]): 2 µg/mL (≈ 4.21 µM) | Activity (Serratia marcescens [31]): 96.3% | MIC50 (Providencia rettgeri [32]): 2 µg/mL (≈ 4.21 µM) | MIC90 (Providencia rettgeri [32]): 8 µg/mL (≈ 16.8 µM) | MIC50 (Klebsiella pneumoniae [33]): 32 µg/mL (≈ 67.3 µM) | MIC90 (Klebsiella pneumoniae [33]): > 128 µg/mL | MIC50 [34]: 0.25 µg/mL (≈ 0.526 µM) | MIC90 [34]: 1 µg/mL (≈ 2.1 µM) | Activity (Escherichia coli): 66.7% | MIC50 (Klebsiella pneumoniae [35]): 0.5 µg/mL (≈ 1.05 µM) | MIC90 (Klebsiella pneumoniae [35]): 0.5 µg/mL (≈ 1.05 µM) | Activity (Pseudomonas sp. [36]): 0% | Activity (Staphylococcus aureus [37]): 88.3% | MIC50 (Pseudomonas aeruginosa [38]): > 128 µg/mL | MIC90 (Pseudomonas aeruginosa [38]): > 128 µg/mL | Activity (Enterobacter cloacae [39]): 5.3% | Activity (Klebsiella pneumoniae [40]): 94% | Km [41]: 308 µM | Activity (Morganella morganii [42]): 41.7%
